According to BindingDB's records for doi:10.7270/Q2PZ576Z (The Scripps Research Institute Molecular Screening Center, 2007):
pEC50: −log10 of the molar value.

Each molecule was assayed against Sphingosine 1-phosphate receptor 3 (Homo sapiens, UniProt Q99500) (assay: S1P3 receptor activation, EC50 – cell-based, NFAT-BLA reporter, dose response (AID 439)). Conditions: not given.
Chain of Sphingosine 1-phosphate receptor 3 (Q99500 whole entry): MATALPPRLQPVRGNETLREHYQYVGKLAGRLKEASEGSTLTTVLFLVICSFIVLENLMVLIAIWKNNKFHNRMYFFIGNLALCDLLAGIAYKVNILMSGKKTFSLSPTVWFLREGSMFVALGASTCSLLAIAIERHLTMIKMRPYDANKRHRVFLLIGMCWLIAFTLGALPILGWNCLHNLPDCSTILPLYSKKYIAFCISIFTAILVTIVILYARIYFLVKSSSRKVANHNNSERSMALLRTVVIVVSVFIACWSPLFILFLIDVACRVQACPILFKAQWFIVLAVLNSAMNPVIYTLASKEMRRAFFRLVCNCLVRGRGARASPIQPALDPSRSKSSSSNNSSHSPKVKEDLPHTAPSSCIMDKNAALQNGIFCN

Question: How did the pEC50 turn out when Cc1cc(C)n(-c2nc(NCC(C)O)c3c4c(sc3n2)CCCC4)n1 (stereo unspecified) [1-[[2-(3,5-dimethyl-1-pyrazolyl)-5,6,7,8-tetrahydro-[1]benzothiolo[2,3-d]pyrimidin-4-yl]amino]-2-propanol] was run?
Answer: The pEC50 was 5.11.

Question: With CCCCn1c(NC(=O)c2ccc(F)cc2)c(C#N)c2nc3ccccc3nc21 [MLS000055622] as the molecule, how does the pEC50 read?
Answer: Its pEC50 is under 4.35.

Question: With O=C(Cc1cccs1)NCc1cn2ccccc2n1 [MLS000103862] as the molecule, how does the pEC50 read?
Answer: Its pEC50 is under 4.35.

Question: With Cc1ccc2nc3c(cc(C#N)c(=O)n3-c3nccs3)c(=O)n2c1 [SMR000047276] as the molecule, how does the pEC50 read?
Answer: Its pEC50 is under 4.35.

Question: How did the pEC50 turn out when Cc1nc(-c2ccccc2)cc(N2CCCC2)n1 [2-methyl-4-phenyl-6-(1-pyrrolidinyl)pyrimidine] was run?
Answer: The pEC50 was under 4.35.

Question: Cc1ccc(-n2c(=O)[nH]cc(C(=O)Nc3ccc4c(c3)OCCO4)c2=O)cc1C [N-(2,3-dihydro-1,4-benzodioxin-6-yl)-3-(3,4-dimethylphenyl)-2,4-bis(oxidanylidene)-1H-pyrimidine-5-carboxamide] was tested. Which pEC50 did it give?
Answer: The pEC50 was under 4.35.

Question: c1ccc(C(Cc2nc(-c3ccncc3)no2)c2ccccc2)cc1 [4-[5-(2,2-diphenylethyl)-1,2,4-oxadiazol-3-yl]pyridine] was tested. Which pEC50 did it give?
Answer: The pEC50 was 5.28.

Question: CC(C)n1c(=N)c(C(=O)NCCc2ccccc2)cc2c(=O)n3ccccc3nc21 [2-Imino-1-isopropyl-10-oxo-1,10-dihydro-2H-1,9,10a-triaza-anthracene-3-carboxylic acid phenethyl-amide] was tested. Which pEC50 did it give?
Answer: Its pEC50 is under 4.35.

Question: Cc1ccc(-c2cc(-c3ccc(Cl)cc3)c(C#N)c(N)n2)o1 [2-azanyl-4-(4-chlorophenyl)-6-(5-methylfuran-2-yl)pyridine-3-carbonitrile] was tested. Which pEC50 did it give?
Answer: Its pEC50 is under 4.35.

Same assay, conditions: inactive by the depositor's call

Question: How did the pEC50 turn out when COc1ccc(Nc2nc(Nc3ccc(OC)cc3)nc(-n3[nH]c(=O)c(C)c3C)n2)cc1 [2-[4,6-bis(4-methoxyanilino)-1,3,5-triazin-2-yl]-3,4-dimethyl-1H-pyrazol-5-one] was run?
Answer: The pEC50 was 4.83.

Question: With Cc1cccn2c(=O)c3cc(C(=O)NC(C)c4ccccc4)c(=N)n(CCCn4ccnc4)c3nc12 (stereo unspecified) [1-(3-imidazol-1-ylpropyl)-2-imino-10-methyl-5-oxo-N-(1-phenylethyl)dipyrido[3,4-c:1',2'-f]pyrimidine-3-carboxamide] as the molecule, how does the pEC50 read?
Answer: The pEC50 was 4.76.

Question: With Cc1cc(-n2c(=O)c(C#N)cc3c(=O)n4ccccc4nc32)no1 as the molecule, how does the pEC50 read?
Answer: The pEC50 was 4.58.

Question: With COc1ccc(CCn2c(N)c(C(=O)NCc3ccco3)c3nc4ccccc4nc32)cc1OC [2-amino-1-[2-(3,4-dimethoxyphenyl)ethyl]-N-(2-furanylmethyl)-3-pyrrolo[3,2-b]quinoxalinecarboxamide] as the molecule, how does the pEC50 read?
Answer: The pEC50 was 4.35.

Question: With Nc1c(C(=O)NCc2ccc3c(c2)OCO3)c2nc3ccccc3nc2n1CCCN1CCOCC1 [2-amino-N-(1,3-benzodioxol-5-ylmethyl)-1-(3-morpholin-4-ylpropyl)pyrrolo[3,2-b]quinoxaline-3-carboxamide] as the molecule, how does the pEC50 read?
Answer: The pEC50 was 4.72.

Question: How did the pEC50 turn out when CC(C)OCCCNC(=O)c1c(N)n(Cc2cccs2)c2nc3ccccc3nc12 [2-amino-N-(3-propan-2-yloxypropyl)-1-(thiophen-2-ylmethyl)pyrrolo[3,2-b]quinoxaline-3-carboxamide] was run?
Answer: Its pEC50 is 4.65.

Question: How did the pEC50 turn out when Nc1c(C(=O)NCCN2CCOCC2)c2nc3ccccc3nc2n1CCc1ccccc1 [2-amino-N-[2-(4-morpholinyl)ethyl]-1-(2-phenylethyl)-3-pyrrolo[3,2-b]quinoxalinecarboxamide] was run?
Answer: Its pEC50 is 3.75.

Question: With CCOc1ccc(-c2noc(-c3ccncc3)n2)cc1OCC [3-(3,4-diethoxyphenyl)-5-(4-pyridyl)-1,2,4-oxadiazole] as the molecule, how does the pEC50 read?
Answer: Its pEC50 is 4.94.

Question: How did the pEC50 turn out when O=C(NCc1ccco1)c1cc2ccc(O)cc2oc1=O [MLS000049147] was run?
Answer: The pEC50 was 4.75.

Question: With O=C(Oc1ccc(-c2nnco2)cc1)N(c1ccccc1)c1ccccc1 [4-(1,3,4-oxadiazol-2-yl)phenyl diphenylcarbamate] as the molecule, how does the pEC50 read?
Answer: The pEC50 was 4.85.

Question: COc1ccccc1Oc1cc(C#N)c(C#N)cc1-n1nnc2ccccc21 [4-(1-benzotriazolyl)-5-(2-methoxyphenoxy)benzene-1,2-dicarbonitrile] was tested. Which pEC50 did it give?
Answer: Its pEC50 is 4.76.

Question: Cn1c(=O)c2c(-c3ccccc3)n(C3CCCCC3)cc2n(C)c1=O [6-cyclohexyl-1,3-dimethyl-5-phenyl-pyrrolo[3,4-d]pyrimidine-2,4-dione] was tested. Which pEC50 did it give?
Answer: The pEC50 was 4.51.
